Each structure is given as a SMILES string.

This is an account of results in patent publication US20160067162A1, “PHOTOPROTECTIVE COMPOUNDS, COMPOSITIONS INCLUDING SAME AND USES THEREOF” (UNIVERSITE DE RENNES 1, priority 2013, published 2016).

What all share (assay type): physicochemical
A short description of data set [1]: UV spectrum measurement in CHCl3 (λmax, molar extinction coefficient). The conditions noted are these: for λmax exp: 10^−4 M in CHCl3; for ε (molar extinction coefficient at the λmax): 10^−4 M in CHCl3, 1 cm cuvette. Here is the method:
The products are diluted in CHCl3 so as to obtain a solution at 10^−4M. The UV spectra are measured using a Uvikon 931 UV-vis spectrophotometer, Serlabo Technologies, Entraigues sur la Sorgue, France. This UV spectrum makes it possible to determine the molar extinction coefficient (mol^−1 L cm^−1) at the λmax by virtue of the Beer-Lambert law: c=A/l×C;
A=value of the absorbance at the λmax; l=length of the cuvette in cm (l=1);
C=concentration of the solution=1×10^−4 mol/l. The theoretical λmax was determined for certain products by DFT calculation.

The nature of data set [2]: SPF measurement, Protocol I (Rennes): simplified O/W emulsion, UV spectrum 200-400 nm. The conditions noted are these: for λc p.I: critical wavelength; for λc p.I / Colipa UVA-PF p.I, at 10% / SPF p.I, at 10%: protocol I; for Colipa UVA-PF p.I, at 10%: product at 10%; for SPF p.I, at 10%: product at 10% in simplified O/W emulsion; for UVA/UVB: ratio of area under the curve 315-400 nm to 280-315 nm. Here is the method:
The SPF measurement is carried out according to the following protocol described in Le Dévéhat F., Malargé A., Couteau C., Coiffard L., Legouin B. “Evaluation of a new UV-filter screening method”, 4th symposium of the AFERP “Biodiversity, chimie des substances naturelles et medicaments” [“Biodiversity, chemistry of natural substances and medicaments”] and 3rd Franco-Pakistani symposium, Besançon (France), Jul. 16-17-18, 2010. A solution of each product dissolved in dimethyl sulfoxide is incorporated at 10% into a simplified emulsion of oil-in-water (O/W) type consisting of liquid paraffin, water and SDS at 10%, the whole mixture taken up in absolute ethanol. The UV spectrum of each solution is recorded between 200 nm and 400 nm in a 10 mm quartz cell on a Uvikon 931 UV-vis spectrophotometer and measured in comparison with a control 10% emulsion solution.
(§1) The SPF and UVA-PF values are, for the two protocols, calculated from the following equations: […]
(§2) where Eλ is the erythemogenic effect of the radiation at the wavelength λ; Sλ is the spectral solar irradiance at the wavelength λ and Tλ is the spectral transmittance of the product at the wavelength λ, λc is the critical wavelength which corresponds to the wavelength at which 90% of the area under the curve (AUC) is integrated between 290 and 400 nm. The UVA/UVB ratio corresponds more specifically to the ratio of the area under the curve between 315 and 400 nm to the area under the curve between 280 and 315 nm.

The nature of data set [3]: SPF measurement, Protocol II (Nantes): O/W emulsion on PMMA plate, transmission with integrating sphere. The conditions noted are these: for λc (p.II): critical wavelength; for SPF (p.II, at 1%): product at 1% in O/W emulsion, PMMA plate, 290-400 nm; for Colipa UVA-PF (p.II, at 1%): product at 1%, 320-400 nm. Here is the method:
The SPF measurement is carried out according to the protocol described in Lohézic-Le Dévéhat F., Legouin B., Couteau C., Boustie J., Coiffard L. “Lichenic extracts and metabolites as UV filters” Journal of Photochemistry and Photobiology B: Biology 120 (2013) 17-28:
An emulsion having the following formulation is used: […]
The two phases are prepared separately. The hydrophilic phase is then added, with stirring, to the lipophilic phase. The products are finally incorporated at 1% into this O/W emulsion. 30 mg of the whole mixture are distributed over the entire surface area (25 cm^2) of a PMMA plate using a finger store. After spreading, 15 mg remain on the finger store. Three plates are prepared per product and nine measurements are carried out. The transmission measurements between 290 and 400 nm for the SPF and between 320 and 400 nm for the UVA-PF are carried out using a spectrophotometer equipped with an integrating sphere (UV Transmittance analyzer UV1000S, Labsphere, North Sutton, US).
as §1, §2

On to `O=C1C=C(c2ccc(F)cc2)NCC1` [Compound 2, 6-(4-fluorophenyl)-2,3-dihydropyridin-4(1H)-one], for which, in data set [1], the λmax exp stood at 326 nm and the “ε (molar extinction coefficient at the λmax)” value came out at 10924 L/mol/cm. Further, in data set [2], the “λc p.I” value was 361 nm; the “Colipa UVA-PF p.I, at 10%” value is 5.85 ± 0.16; the “SPF p.I, at 10%” value was 4.30 ± 0.12; the UVA/UVB is 3.08 ± 0.00. In data set [3], the “λc (p.II)” value was 383 nm; the “SPF (p.II, at 1%)” value was found to be 1.81 ± 0.11; the “Colipa UVA-PF (p.II, at 1%)” value came to 1.95 ± 0.12.
As for `CCCC1=CC(=O)CCN1` [Compound 5, 6-propyl-2,3-dihydropyridin-4(1H)-one], in data set [1], the λmax exp is recorded as 303 nm and the “ε (molar extinction coefficient at the λmax)” value is 12361 L/mol/cm. Besides, in data set [2], the “λc p.I” value turned out to be 328 nm; the “Colipa UVA-PF p.I, at 10%” value is on record as 1.66 ± 0.003; the “SPF p.I, at 10%” value worked out at 12.17 ± 0.09; the UVA/UVB was 0.36 ± 0.00. Further, in data set [3], the “λc (p.II)” value is listed as 335 nm; the “SPF (p.II, at 1%)” value was found to be 11.18 ± 1.03; the “Colipa UVA-PF (p.II, at 1%)” value was 2.58 ± 0.07.
Take `COc1ccc(C2=CC(=O)CCN2)cc1` [Compound 3, 6-(4-methoxyphenyl)-2,3-dihydropyridin-4(1H)-one]: in data set [1], the λmax exp was determined as 330 nm and the “ε (molar extinction coefficient at the λmax)” value came to 16259 L/mol/cm. In addition, in data set [2], the “λc p.I” value was determined as 362 nm; the “Colipa UVA-PF p.I, at 10%” value is reported as 9.16 ± 0.10; the “SPF p.I, at 10%” value was 4.30 ± 0.12; the UVA/UVB was 2.85 ± 0.01. In addition, in data set [3], the “λc (p.II)” value came out at 384 nm; the “SPF (p.II, at 1%)” value turned out to be 1.25 ± 0.04; the “Colipa UVA-PF (p.II, at 1%)” value amounted to 1.33 ± 0.04.
For `CN(C)c1ccc(C2=CC(=O)CCN2)cc1` [Compound 4, 6-(4-(dimethylamino)phenyl)-2,3-dihydropyridin-4(1H)-one], in data set [1], the λmax exp is given as 355 nm and the “ε (molar extinction coefficient at the λmax)” value came out at 26286 L/mol/cm. In data set [2], the “λc p.I” value stood at 361 nm; the “Colipa UVA-PF p.I, at 10%” value is reported as 42.67 ± 1.16; the “SPF p.I, at 10%” value came to 9.24 ± 0.18; the UVA/UVB is on record as 5.19 ± 0.01. Also, in data set [3], the “λc (p.II)” value was determined as 387 nm; the “SPF (p.II, at 1%)” value was 1.72 ± 0.08; the “Colipa UVA-PF (p.II, at 1%)” value is recorded as 1.88 ± 0.09.
